Results as given in patent US4554281A, “2-Amino-3-acylamino-6-benzylamino-pyridine-derivative having antiepileptic action” (priority 1982, dated 1985).

What was measured:
[1] = s.c. Met - Subcutaneous Pentetrazole (Metrazole) Test (anticonvulsive action, intraperitoneal); format: in vivo, mouse (male Carworth Farms Mice); details: in vivo, ip; mouse, intraperitoneal; number below the slanting line; read-out: quotient TD 50/ED 50 (MET), therapeutic breadth
Procedure: (§1) All experiments were carried out with male Carworth Farms Mice.
(§2) The materials were tested in three dosages (30, 100, 300 mg/kg) (600 mg/kg was co-tested if a sufficient amount of the material was present). The materials in each case were dissolved in 30% aqueous polyethylene glycol solution.
(§3) The absence of a clearly noticeable attack, (single occurrence of a […] spasm lasting 5 seconds) based on the previous intraperitoneal application of the test substances evaluated as protective action (the test substances were applied intraperitoneally before the application of pentetrazole). The results were represented as follows: number of animals having protective action/total number of test animals

mouse [2] = test: as above; format: in vivo, mouse (male Carworth Farms Mice); details: ip, read-out: Metrazole-Test (MET) ED 50
Procedure: as §1, §2, §3

[3] = Oral acute toxicity (LD 50) according to Miller & Tainter; set-up: species or system white mouse; details: in vivo, mouse, per os, observation time 24 hours
Procedure: Examples for the toxicity on the mouse per se (expressed as LD 50 in mg/kg are as follows: […]
The determination of the oral toxicity on the white mouse was carried out in the international procedure according to Miller & Tainter (Proc. Soc., Exper. Biol. a Med. Vol. 57, page 261 et. seq. (1944)) with an observation time of 24 hours. The toxicity was stated as LD 50 in mg/kg.

[4] = MES - Maximum Electroshock Attack Test (anticonvulsive action, intraperitoneal); format: in vivo, mouse (male Carworth Farms Mice); details: in vivo, ip; mouse, intraperitoneal; number below the slanting line; read-out: quotient TD 50/ED 50 (MES), therapeutic breadth
Procedure: as §1, §2
(§4) A maximum electroshock attack was obtained through alternating current (60 Hz, 50 m A intensity) with which the mouse was irritated for 0.2 seconds via corneal electrodes. A 5-7 times weaker intensity of irritation was sufficient to produce a minimum electroshock-attack. One drop of 0.9% aqueous NaCl solution was given before applying the electrodes into the eyes in order to guard against killing the animals. The test substances were dispersed intraperitoneally before the irritation. […] the tonic stretching components of the attack (rear extremities) was regarded as protective action. The results were represented as follows:
(§5) number of animals having protective action/total number of test animals

mouse [5] = test: as above; format: in vivo, mouse (male Carworth Farms Mice); details: ip, read-out: Maximum Electro-Shock (MES) ED 50
Procedure: as §1, §2, §4, §5

[6] = TD 50 - Neurotoxicity, rotating rod; set-up: species or system mouse (male Carworth Farms Mice); details: in vivo, ip, mouse, intraperitoneal
Procedure: TD 50: is the ED 50 for the behavior of the mouse on the experimental
model of the rotating rod in mg/kg with intraperitoneal application. The
TD 50 is a measure for the undesired neurotoxic side effect.
as §1, §2
The test on the rotating rod was referred to for the evaluation of the neurotoxicity. The animals were placed on a rotating (6 rotations per minute) plastic rod having a diameter of 2.54 cm. […] An animal was characterized as neurologically toxic if it fell from the rotating rod within one minute.
number of animals which fell/total number of test animals

| Compound | selectivity ratio [1] | ED50 (mouse [2]; Mus musculus) [mg/kg] | LD50 at 24 h [3] [mg/kg] | selectivity ratio [4] | ED50 (mouse [5]; Mus musculus) [mg/kg] | TD50 [6] [mg/kg] | ED50 (mouse [2]; mouse, intraperitoneal, s.c. pentetrazole 85 mg/kg) [mg/kg] | ED50 (mouse [5]; mouse, intraperitoneal) [mg/kg] |
| --- | --- | --- | --- | --- | --- | --- | --- | --- |
| CCOC(=O)Nc1ccc(NCc2c(C)cc(C)cc2C)nc1N.Cl [D 10 328, 2-amino-3-carbethoxyamino-6-(2,4,6-trimethyl-benzylamino)pyridine-hydrochloride] | 1.08 | 1.01 | 127 | 0.55 | 1.97 | 1.09 | – | – |
| CCOC(=O)Nc1ccc(NCc2ccc(C(C)=O)cc2)nc1N [D 10 558, 2-amino-3-carbethoxyamino-6-(4-methylcarbonyl-benzylamino)-pyridine] | 4 | 18.4 | – | 1.37 | 53.8 | 73.9 | – | – |
| CCOC(=O)Nc1ccc(NCc2cccc(F)c2)nc1N.Cl [D 10 981, 2-amino-3-carbethoxyamino-6-(3-fluorobenzylamino)-pyridine-hydrochloride] | 3.61 | 9.07 | 2060 | 1.9 | 17.2 | 32.7 | – | – |
| CCOC(=O)Nc1ccc(NCc2ccc(C(F)(F)F)cc2)nc1N.Cl [D 11 208, 2-amino-3-carbethoxyamino-6-(4-trifluoromethyl-benzylamino)-pyridine-hydrochloride] | 6.81 | 11.2 | – | 2.73 | 27.9 | 76.3 | – | – |
| CC(=O)Nc1ccc(NCc2ccc(F)cc2)nc1N.Cl [D 13 223, 2-amino-3-acetamino-6-(4-fluoro-benzylamino)-pyridine-hydrochloride] | 2.14 | 93.8 | – | 2.38 | 84.3 | 201 | – | – |
| CCOC(=O)Nc1ccc(NCc2ccccc2)nc1N.Cl [D 7175, 2-amino-3-carbethoxyamino-6-benzylamino-pyridine-hydrochloride] | 4.8 | 9.46 | 402 | 2.3 | 19.7 | 45.6 | – | – |
| CCOC(=O)Nc1ccc(NCc2ccc(Cl)cc2)nc1N.Cl [D 9389, 2-amino-3-carbethoxyamino-6-(4-chlorobenzylamino)-pyridine-hydrochloride] | 2.39 | 10 | 1250 to 1500 | 1.64 | 14.6 | 23.9 | – | – |
| CCOC(=O)Nc1ccc(NCc2ccc(NC(C)=O)cc2)nc1N.Cl [D 9663, 2-amino-3-carbethoxyamino-6-(4-methylcarbonylamino-benzylamino)-pyridine-hydrochloride] | 2.49 | 57.2 | – | 1.15 | 124 | 142 | – | – |
| CCOC(=O)Nc1ccc(NCc2ccc(S(N)(=O)=O)cc2)nc1N [D 9805, 2-amino-3-carbethoxyamino-6-(4-aminosulfonyl-benzylamino)-pyridine] | 0.96 | 550 | – | 4.9 | 108 | 530 | – | – |
| CCOC(=O)Nc1ccc(NCc2ccc(F)cc2)nc1N.Cl [D 9998, 2-amino-3-carbethoxyamino-6-(4-fluorobenzylamino)-pyridine-hydrochloride] | 1.86 | – | 617 | 1.67 | – | 37.7 | 20.3 | 22.5 |
